ChEMBL document CHEMBL1139430, “Synthesis of a natural product-inspired eight-membered ring lactam library via ring-closing metathesis” (Bioorg Med Chem Lett, 2008)
pIC50: −log10 of the molar value.

How the values were obtained:
[1] = system: L1210; assay: Antiproliferative activity against mouse L1210 cells at day 4 by MTS/PMS assay; format: functional, cell-based; settings: L1210, 96 h
[2] = system: HL-60; assay: Antiproliferative activity against human HL60 cells at 62.5 to 156.25 uM at day 4 by MTS/PMS assay; format: functional
[3] = system: HL-60; assay: Antiproliferative activity against human HL60 cells at day 4 by MTS/PMS assay; format: functional, cell-based; settings: HL-60, 96 h
[4] = Antiproliferative activity against mouse Pan02 cells at day 4 by MTS/PMS assay; format: functional, cell-based; settings: Pan02, 96 h

Structure (SMILES) | pIC50 [1] | pIC50 [3] | inhibition (INH) [2] | pIC50 [4]
COc1ccc([C@H]2/C=C\C[C@H](NS(=O)(=O)c3ccc4ccccc4c3)CC(=O)N2Cc2ccc(F)cc2)cc1 (relative stereo) | 5.07 |  | <50% | 
COc1ccc([C@H]2/C=C\C[C@H](NS(=O)(=O)c3ccc(C)cc3)CC(=O)N2Cc2ccc(F)cc2)cc1 (relative stereo) | 4.96 |  | <50% | 
COc1ccc([C@H]2/C=C\C[C@H](NC(=O)C3CCCC3)CC(=O)N2Cc2ccc(F)cc2)cc1 (relative stereo) | 4.40 |  | <50% | 
COc1ccc([C@H]2/C=C\C[C@H](NS(=O)(=O)c3cccc4cccnc34)CC(=O)N2Cc2ccc(F)cc2)cc1 | 4.81 |  | <50% | 
COc1ccc(C(=O)N[C@H]2C/C=C\[C@H](c3ccc(OC)cc3)N(Cc3ccc(F)cc3)C(=O)C2)cc1 (relative stereo) | 4.60 | 4.40 |  | 4.46

Continued by rising pIC50 [1], values first:

pIC50 [1] | pIC50 [3] | Structure (SMILES) | inhibition (INH) [2] | pIC50 [4]
4.42 |  | CCCCS(=O)(=O)N[C@H]1C/C=C\[C@H](c2ccc(OC)cc2)N(Cc2ccc(F)cc2)C(=O)C1 (relative stereo) | <50% | 
4.57 | 4.26 | COc1ccc([C@H]2/C=C\C[C@H](NC(=O)c3ccccc3)CC(=O)N2Cc2ccc(F)cc2)cc1 (relative stereo) |  | 4.39
